{"source": "patent US20240016834A1", "about": "“ANTIMICROBIAL AGENT COMPOSITION AND MANUFACTURING METHOD AND PRODUCT THEREOF” (priority 2020, published 2024)", "key": {"[1]": {"test_system": "Escherichia coli (E. coli) ATCC 8739", "assay": "In vitro antibacterial power test (KFDA guidelines for external disinfectants), 5 minutes contact", "format": "cell-based", "settings": "inoculum 1.3 × 10^3 CFU/mL", "excerpt": "(§1) The <Table 1> below is based on the official test report of a test that was requested to and performed by the Korea Analytical Testing Research Institute as a test institution. […] In this case, an inhibition rate (%) of the test result is as follows: Inhibition Rate (%)=(Number of Bacteria in Control Group−Number of Bacteria in Sample Group)/Number of Bacteria in Control Group."}, "[2]": {"test_system": "Staphylococcus aureus ATCC 6538", "assay": "In vitro antibacterial power test (KFDA guidelines for external disinfectants), 5 minutes contact", "format": "cell-based", "settings": "inoculum 1.0 × 10^3 CFU/mL", "excerpt": "as §1"}, "[3]": {"test_system": "Salmonella Typhimurium ATCC 14028", "assay": "In vitro antibacterial power test (KFDA guidelines for external disinfectants), 5 minutes contact", "format": "cell-based", "settings": "inoculum 1.1 × 10^3 CFU/mL", "excerpt": "as §1"}, "[4]": {"test_system": "Infectious bronchitis (corona virus)", "assay": "Administration test to broiler chicken 2 (farm)", "format": "in vivo, broiler chicken (Ross)", "settings": "antibiotic administered before the Impact treatment", "method": "In the second test, referring to <Table 3> in the below, infectious bronchitis (corona virus) occurred among 24,000 of Ross breeds at the age of 20 days at the broiler chicken consignment farm mentioned above. […] For the test, the product of the present invention was fed at the recommended dosage and was administered in the same way for 3 days."}}, "data": [{"smiles": "CC1(C)S[C@@H]2[C@H](NC(=O)[C@H](N)c3ccccc3)C(=O)N2[C@H]1C(=O)O", "note": "[Ampicillin 100, ampicillin]", "values": [{"measurement": "Inhibition rate (%) of number of viable cells after 5 minutes [Antibacterial power]", "setting": "[1]", "result": "(99.9%)"}, {"measurement": "Inhibition rate (%) of number of viable cells after 5 minutes [Antibacterial power]", "setting": "[2]", "result": "(94.6%)"}, {"measurement": "number of viable cells after 5 minutes", "setting": "[2]; control group 1.5 × 10^3", "result": "8.1 × 10^1 CFU/mL"}, {"measurement": "Inhibition rate (%) of number of viable cells after 5 minutes [Antibacterial power]", "setting": "[3]", "result": "(98.6%)"}, {"measurement": "number of viable cells after 5 minutes", "setting": "[3]; control group 1.6 × 10^3", "result": "2.1 × 10^1 CFU/mL"}, {"measurement": "respiratory symptoms", "setting": "[4]", "result": "symptoms persisted."}]}]}
